These results are taken from patent US11771676B2, “Method for preparing high-load oral paclitaxel capsule for slow release in colon” (Jiangnan University, priority 2022, dated 2023).

The series in a line: Determination of stability in upper digestive tract and simulated colonic release (SGF, SIF, SCF; dialysis bag, UV 230 nm). Format: physicochemical. Conditions: cumulative release after SGF and SIF. How it is done: 6. Determination of Stability in Upper Digestive Tract and Simulated Colonic Release
A simulated gastric fluid (SGF, a pH of 1.2) consists of 2.95 g/L of sodium chloride and 8 ml/L of hydrochloric acid. A paclitaxel capsule (1 mg/ml of paclitaxel (dry weight)) is added to the SGF containing 3.2 g/L of pepsin and placed in a sealed dialysis bag (8,000-14,000 Da), then the dialysis bag is soaked in the SGF containing 3% (v/w) Tween-20 and stirred at 100 rpm at 37±0.5° C., and 2 ml of a release medium is withdrawn at 30 min, 60 min, 90 min, and 120 min respectively. An equal volume of the fresh SGF is added to maintain a volume after each sampling.
A pH value of the SGF system is adjusted to 6.8 with disodium hydrogen phosphate and a fresh porcine trypsin solution at 30 mg/mL is added into the dialysis bag to obtain a simulated intestinal fluid (SIF). 2 ml of a release medium is taken out at 30 min, 60 min, 90 min, and 120 min respectively and a concentration of paclitaxel is determined. An equal volume of the fresh release medium is added to maintain a volume after each sampling. […]
The concentration of paclitaxel is measured with an ultraviolet spectrophotometer at a wavelength of 230 nm.

For the compound `CC(=O)O[C@H]1C(=O)[C@@]2(C)[C@H]([C@H](OC(=O)c3ccccc3)[C@]3(O)C[C@H](OC(=O)[C@H](O)[C@@H](NC(=O)c4ccccc4)c4ccccc4)C(C)=C1C3(C)C)[C@]1(OC(C)=O)CO[C@@H]1C[C@@H]2O` [raw paclitaxel, paclitaxel], the “release amount (dissolution rate) in a stomach-small intestine” value is listed as “about 25%”.
